What all share (type): physicochemical
Series [1] can be described thus: Form change on storage/exposure at ambient conditions (XRPD). Particulars: storage / exposure at ambient condition (Freebase Type E: 30 m). Here is the method: About 15 mg of Fumarate Type A of compound (I) was suspended in 0.5 mL of H2O in an HPLC vial. The suspension was magnetically stirred at a speed of about 1000 rpm at RT for 9 days. The wet solids were isolated to afford Fumarate Type C of compound (I) (wet sample was analyzed). […] XRPD patterns and data were shown in FIG. 10 and Table 10, respectively.
About 60 mg of Amorphous Freebase of compound (I) was suspended in 2 mL of THF/H2O (1:4, v/v) in an HPLC vial. The suspension was magnetically stirred at a speed of about 1000 rpm at 5° C. for 4 days. The solids were isolated via centrifugation and dried at ambient condition for about 2 hours. After sweeping the solids by N2 for 20 min at 30° C. Freebase Type E of compound (I) was obtained.

A short description of series [2]: Equilibrium solubility in pH 6.8 buffer. Particulars: 37° C., stirred 24 hours. The protocol:
(§1) An Agilent 1260 HPLC instrument was utilized and detailed chromatographic conditions for purity and solubility analysis were listed in Table 6.
About 5˜10 mg of solids were suspended in pH 6.8 buffer to get a mixture. The suspensions were stirred for 24 hours, followed by centrifugation and filtration to obtain supernatants for HPLC test.

The nature of series [3]: Equilibrium solubility in H2O. Particulars: 37° C., stirred 24 hours. Here is the method: as §1
About 5˜10 mg of solids were suspended in H2O to get a mixture. The suspensions were stirred for 24 hours, followed by centrifugation and filtration to obtain supernatants for HPLC test.

The nature of series [4]: Angle of repose (flowability). The text has this:
Form the angle of repose on a fixed base with a retaining lip to retain a layer of powder on the base. Carefully build up a symmetrical cone of powder. Determine the angle of repose by measuring the height (h) and base radius (r) of the cone of powder and calculating the angle of repose a from the following equation α=tan^−1(h/r).
(§2) The results of amorphous freebase, Freebase Type F, Fumarate Type B and Fumarate Type E for flowability and compressibility were summarized in Table 30. Generally, powders with smaller Karl index would show better compressibility and flowability. And powders with smaller angle of repose would show better flowability.

Series [5] is described as follows: Mechanical stability (XRPD form change after grinding and tableting). Particulars: for XRPD form change after grinding: grinding ~5 min; for XRPD form change after tableting: tableting ~234 Mpa. The protocol:
Mechanical stability of the solid forms was evaluated by monitoring the XRPD form change after grinding (˜5 min) and tableting (˜234 Mpa).

Another series is described as follows: Hygroscopicity by DVS. The protocol: DVS is measured via a SMS (Surface Measurement Systems) DVS Intrinsic. The relative humidity at 25° C. is calibrated against deliquescence point of LiCl, Mg(NO3)2 and KCl.
DVS isotherm plot was collected at 25° C. to investigate the selected solid forms stability as a function of humidity. Compared with amorphous freebase, the hygroscopicity of Freebase Type B, Fumarate Type A, Fumarate Type B and Fumarate Type E was lower under 80% RH/25° C.

The nature of series [6]: TGA and DSC/mDSC thermal analysis (characterization of forms). Here is the method:
In salt screening and evaluation and in polymorph study, TGA was performed using a TA Q500, TA Q5000 or Discovery 5500 TGA from TA Instruments. DSC or mDSC was performed using a TA Q200/Q2000 or Discovery 2500 DSC from TA Instruments.

Series [7] is described as follows: Kinetic solubility in FaSSIF. As to conditions: 37° C. Here is the method: as §1
Kinetic solubility of amorphous freebase and Fumarate Type B/E was measured in FaSSIF to evaluate the solubility. […] After centrifugation, supernatants were collected for HPLC tests.

Series [8] is described as follows: Equilibrium solubility in pH 4.5 buffer. Particulars: 37° C., stirred 24 hours. The protocol:
as §1
About 5˜10 mg of solids were suspended in pH 4.5 buffer to get a mixture. The suspensions were stirred for 24 hours, followed by centrifugation and filtration to obtain supernatants for HPLC test.

Series [9] in a line: Bulk density, tap density and Carr index (flowability and compressibility). As to conditions: for Carr index: (ρ1−ρ0)/ρ1; for Tapped density: tapped 200 times. The protocol: Bulk density was determined by adding appropriate amount (m) of material into a 5 mL graduate cylinder and recording its apparent volume (v0). The bulk density was obtained by dividing the amount of material by its apparent volume of the unsettled material (ρ0=m/v0). For tap density, the cylinder was then tapped for 200 times. The tap density was then calculated by dividing the amount of material by its final tapped volume (ρ1=m/v1). Carr index=(ρ1−ρ0)/ρ1.
as §2

A short description of series [10]: Solid state stability, 40° C./75% RH/open for 1 month (XRPD, HPLC purity). Particulars: for Purity/Initial by HPLC area % / Form Change: 40° C., 75% RH, open; for Form Change: by XRPD; for Purity change by HPLC (chemical stability) compared with amorphous freebase: 40° C./75% RH; for Solid form change by XRPD (physical stability): 40° C./75% RH/open. The protocol: as §1
To evaluate the solid state stability of the selected forms (amorphous freebase, Freebase Type F, Fumarate Type A and Fumarate Type B) samples were stored under 40° C./75% RH/open for 1 month. Stability samples were characterized by XRPD to check any solid form change and by HPLC to check purity change.

Series [11] can be described thus: Contact angle against water (wettability). The protocol:
The wettability of the solid forms was evaluated by the contact angle against water.

The nature of the next series: Crystal habit by PLM. The text has this:
The PLM images were captured with Carl Zeiss Axio Scope. A1 microscope at RT.
PLM was used to observe the crystal habit of the particles (amorphous freebase and Fumarate Type A).

A value given as a limit tells only on which side of the number the result lay.

This note sets out measurements from patent US20240417403A1, “CRYSTALLINE FORMS OF QUINAZOLINE DERIVATIVES, PREPARATION, COMPOSITION AND USE THEREOF” (Hoffmann-La Roche Inc., priority 2021, published 2024).

For the compound `COc1ccc2ncnc(Nc3ccc(Oc4cc5ncnn5cn4)c(C)c3)c2c1O[C@@H]1CCN(C)CC1(F)F` [Freebase Type E, (R)-N-(4-([1,2,4]triazolo[1,5-c]pyrimidin-7-yloxy)-3-methylphenyl)-5-((3,3-difluoro-1-methylpiperidin-4-yl)oxy)-6-methoxyquinazolin-4-amine], the “Form conversion at ambient conditions” value in series [1] is “converted to Freebase Type C”.

Regarding `COc1ccc2ncnc(Nc3ccc(Oc4cc5ncnn5cn4)c(C)c3)c2c1O[C@@H]1CCN(C)CC1(F)F` [Fumarate Type E, (R)-N-(4-([1,2,4]triazolo[1,5-c]pyrimidin-7-yloxy)-3-methylphenyl)-5-((3,3-difluoro-1-methylpiperidin-4-yl)oxy)-6-methoxyquinazolin-4-amine], the “Solubility in pH 6.8 buffer” value in [2] is given as 0.92 mg/mL. In addition, the “Solubility in H2O” value in series [3] is ≥5000 µg/mL. Further, the Angle of repose in [4] stood at 38.3°. Further, in [5], the “XRPD form change after grinding” value is “No” and the “XRPD form change after tableting” value was “No”. Besides, the “Weight change at 80% RH/25° C. by DVS” value in “Hygroscopicity by DVS” is reported as 2.1%. Moreover, the “TGA weight loss (150° C., %)” value in series [6] (crystalline salts) amounted to 9.4%. In addition, the “TGA weight loss (%, temp.)” value in series [6] (fumarate forms, to 150° C.) is given as 9.4 (to 150° C.) %. Moreover, the “Solubility in FaSSIF” value in series [7] (timepoint 1 h) was ≥360 µg/mL. In series [7] (timepoint 2 h), the “Solubility in FaSSIF” value was ≥360 µg/mL. For the same compound, the “Solubility in FaSSIF” value in [7] (timepoint 24 h) is ≥360 µg/mL. Also, the “Solubility in pH 4.5 buffer” value in [8] came to 1.3 mg/mL. Further, in series [9], the Bulk density was 0.30 g/mL, the Carr index amounted to 41.7% and the Tapped density turned out to be 0.51 g/mL.

As to `COc1ccc2ncnc(Nc3ccc(Oc4cc5ncnn5cn4)c(C)c3)c2c1O[C@@H]1CCN(C)CC1(F)F` [Freebase Type F, (R)-N-(4-([1,2,4]triazolo[1,5-c]pyrimidin-7-yloxy)-3-methylphenyl)-5-((3,3-difluoro-1-methylpiperidin-4-yl)oxy)-6-methoxyquinazolin-4-amine], the Angle of repose in [4] is 35.8°. Further, in [10], the “Purity/Initial by HPLC area %” value was 100.3%, the “Form Change” value is reported as “No”, the “Purity change by HPLC (chemical stability) compared with amorphous freebase” value (shortened to “Purity change by HPLC … with amorphous freebase”) is “lower purity change” and the “Solid form change by XRPD (physical stability)” value (“Solid form change by XRPD” for short) is on record as “no form change”. For the same compound, the “TGA weight loss (%, temp.)” value in series [6] (free base forms, to 70° C.) is recorded as 5.7 (to 70° C.) %. In series [9], this compound displayed a Bulk density of 0.19 g/mL, a Carr index of 31.9% and a Tapped density of 0.28 g/mL.

Turning to `COc1ccc2ncnc(Nc3ccc(Oc4cc5ncnn5cn4)c(C)c3)c2c1O[C@@H]1CCN(C)CC1(F)F` [Fumarate Type C, (R)-N-(4-([1,2,4]triazolo[1,5-c]pyrimidin-7-yloxy)-3-methylphenyl)-5-((3,3-difluoro-1-methylpiperidin-4-yl)oxy)-6-methoxyquinazolin-4-amine], in [1], the “Form conversion at ambient conditions” value was “Form conversion between Fumarate Type C and Fumarate Type B”. Besides, the “TGA weight loss (150° C., %)” value in series [6] (crystalline salts) is 1.5%.

For `COc1ccc2ncnc(Nc3ccc(Oc4cc5ncnn5cn4)c(C)c3)c2c1O[C@@H]1CCN(C)CC1(F)F` [Fumarate Type B, (R)-N-(4-([1,2,4]triazolo[1,5-c]pyrimidin-7-yloxy)-3-methylphenyl)-5-((3,3-difluoro-1-methylpiperidin-4-yl)oxy)-6-methoxyquinazolin-4-amine], in series [2], the “Solubility in pH 6.8 buffer” value worked out at 0.90 mg/mL. For the same compound, the “Solubility in H2O” value in [3] was ≥5200 µg/mL. In series [4], this compound yielded an Angle of repose of 26.6°. For the same compound, the “Weight change at 80% RH/25° C. by DVS” value in the series “Hygroscopicity by DVS” is listed as 2.1%. Further, in series [10], the “Purity/Initial by HPLC area %” value is 99.6%, the “Form Change” value is given as “No”, the “Purity change by HPLC … with amorphous freebase” value was “lower purity change” and the “Solid form change by XRPD” value is listed as “no form change”. In [6] (crystalline salts), the “TGA weight loss (150° C., %)” value was 4.9%. Moreover, in [6] (fumarate forms, to 150° C.), the “TGA weight loss (%, temp.)” value was 4.9 (to 150° C.) %. For the same compound, in series [7] (timepoint 1 h), the “Solubility in FaSSIF” value was ≥390 µg/mL. For the same compound, the “Solubility in FaSSIF” value in [7] (timepoint 2 h) is ≥390 µg/mL. Besides, in series [7] (timepoint 24 h), the “Solubility in FaSSIF” value was ≥390 µg/mL. In series [8], the “Solubility in pH 4.5 buffer” value is 2.3 mg/mL. Also, in series [9], the Bulk density came out at 0.36 g/mL, the Carr index was 30.4% and the Tapped density was 0.52 g/mL. The Contact angle in series [11] is listed as 29.0°.

Take `COc1ccc2ncnc(Nc3ccc(Oc4cc5ncnn5cn4)c(C)c3)c2c1O[C@@H]1CCN(C)CC1(F)F` [Fumarate Type A, (R)-N-(4-([1,2,4]triazolo[1,5-c]pyrimidin-7-yloxy)-3-methylphenyl)-5-((3,3-difluoro-1-methylpiperidin-4-yl)oxy)-6-methoxyquinazolin-4-amine]: in series [3], the “Solubility in H2O” value was ≥5000 µg/mL. Besides, in [5], the “XRPD form change after grinding” value is given as “No” and the “XRPD form change after tableting” value was “No”. Further, in “Hygroscopicity by DVS”, the “Hygroscopicity (in words)” value is given as “slightly hygroscopic” and the “Weight change at 80% RH/25° C. by DVS” value is listed as 0.8%. Also, in series [10], the “Purity/Initial by HPLC area %” value is recorded as 100.1%, the “Form Change” value is “No”, the “Purity change by HPLC … with amorphous freebase” value was “lower purity change” and the “Solid form change by XRPD” value is reported as “no form change”. Besides, in series [6] (crystalline salts), the “TGA weight loss (150° C., %)” value is 1.9% and the “DSC endotherm (° C., peak)” value was determined as 167.6 °C. For the same compound, the “DSC endotherm (° C., peak)” value in series [6] (fumarate forms) is 167.6 °C. Besides, the “TGA weight loss (%, temp.)” value in series [6] (fumarate forms, to 150° C.) was 1.9 (to 150° C.) %. Besides, the “Solubility in pH 4.5 buffer” value in series [8] is on record as ≥8.4 mg/mL. For the same compound, the “Crystal habit of the particles” value in “Crystal habit by PLM” is on record as “rod-like particles with regular shape”. In series [11], this compound gave a Contact angle of 20.3°.

`COc1ccc2ncnc(Nc3ccc(Oc4cc5ncnn5cn4)c(C)c3)c2c1O[C@@H]1CCN(C)CC1(F)F` [Freebase Type A, (R)-N-(4-([1,2,4]triazolo[1,5-c]pyrimidin-7-yloxy)-3-methylphenyl)-5-((3,3-difluoro-1-methylpiperidin-4-yl)oxy)-6-methoxyquinazolin-4-amine]: in series [6] (free base forms), the “DSC endotherm (° C., peak)” value turned out to be 71.3 °C. Moreover, the “TGA weight loss (%, temp.)” value in series [6] (free base forms, to 140° C.) is recorded as 9.9 (to 140° C.) %.

Turning to `COc1ccc2ncnc(Nc3ccc(Oc4cc5ncnn5cn4)c(C)c3)c2c1O[C@@H]1CCN(C)CC1(F)F` [Mesylate Type A, (R)-N-(4-([1,2,4]triazolo[1,5-c]pyrimidin-7-yloxy)-3-methylphenyl)-5-((3,3-difluoro-1-methylpiperidin-4-yl)oxy)-6-methoxyquinazolin-4-amine], in [6] (crystalline salts), the “TGA weight loss (150° C., %)” value stood at 10.2% and the “DSC endotherm (° C., peak)” value was found to be 65.1 °C.
